Experimental data published in patent US9308180B2, “Compositions and methods for preparation of poorly water soluble drugs with increased stability” (Abraxis BioScience, LLC, priority 2005, dated 2016).

Legend:
[1] = Stability of docetaxel forms dissolved in Tween 80; format: physicochemical; settings: 40 mg/mL (on anhydrous basis) in Tween 80, after a few days
Description: It is well known that docetaxel is formulated with Tween 80 as a solubilizer or emulsifier for the commercial product Taxotere. The different docetaxels were dissolved in Tween 80 at a concentration of 40 mg/mL (on anhydrous basis). […] Thus, the anhydrous docetaxel is preferred in the Tween formulation. In addition it may be useful to use a Tween 80 or equivalent surfactant that is anhydrous or very low in water content as the anhydrous form of docetaxel may absorb water to form the hydrated form which could result in precipitation.

[2] = Rate of dissolution of docetaxel forms in acetonitrile; format: physicochemical; settings: 5 mg/mL (anhydrous basis)
Description: To compare if the different types of docetaxel material had different solubility profiles as a result of their different structures, their solubility rates were compared in the solvent acetonitrile. Acetonitrile was added to a fixed amount of docetaxel from different suppliers to obtain a concentration of 5 mg/mL (anhydrous basis). The rate at which dissolution of the different docetaxels occurred was observed. It was observed that the anhydrous docetaxels (from 2 different suppliers) dissolved completely in less than 1 minute. […] Under these further diluted conditions, the time to dissolve was between 5 and 10 minutes for the hydrated materials. A similar observation was made when using the solvent chloroform.

Row | Sediment or precipitate in Tween 80 solution [1] | Time to dissolve completely [2] | Dissolution (observation) [2] | SMILES
1 | no precipitate was observed | less than 1 minute |  | CC(=O)O[C@@]12CO[C@@H]1C[C@H](O)[C@@]1(C)C(=O)[C@H](O)C3=C(C)[C@@H](OC(=O)[C@H](O)[C@@H](NC(=O)OC(C)(C)C)c4ccccc4)C[C@@](O)([C@@H](OC(=O)c4ccccc4)[C@H]21)C3(C)C [anhydrous docetaxel, docetaxel]
2 |  |  | did not readily dissolve | CC(=O)O[C@@]12CO[C@@H]1C[C@H](O)[C@@]1(C)C(=O)[C@H](O)C3=C(C)[C@@H](OC(=O)[C@H](O)[C@@H](NC(=O)OC(C)(C)C)c4ccccc4)C[C@@](O)([C@@H](OC(=O)c4ccccc4)[C@H]21)C3(C)C [partial hydrate, docetaxel hemihydrate]
